Patent publication US10059667B2, “Antidiabetic compounds” (MERCK SHARP & DOHME CORP., priority 2014, dated 2018)

Molecular target: Human GPR40 (Homo sapiens (Human), UniProt O14842)
Assay: Inositol Phosphate Turnover (IP1) Assay 1, HEK cells stably expressing human GPR40, 3H-inositol SPA
Type: cell-based
Conditions: HEK cells stably expressing human GPR40, 96-well
Procedure: Human and mouse GPR40 stable cell-lines were generated in CHO cells stably expressing NFAT BLA (Beta-lactamase). A human GPR40 stable cell-line was generated in HEK cells stably expressing the aequorin expressing reporter. The expression plasmids were transfected using lipofectamine (Life Technologies) following manufacturer's instructions. Stable cell-lines were generated following drug selection.
The assay was performed in 96-well format. HEK cells stably expressing human GPR40 were plated to be 60-80% confluent within 72 h. After 72 h, the plates were aspirated and the cells washed with inositol-free DMEM (ICN). The wash media was replaced with 150 μL of 3H-inositol labeling media (inositol-free media containing 0.4% human albumin or 0.4% mouse albumin, 1× pen/strep antibiotics, glutamine, 25 mM HEPES to which was added 3H-myo-inositol NEN #NET114A 1 mCi/mL, 25 Ci/mmol diluted 1:150 in loading media with a final specific radioactivity of 1 μCi/150 μL). Alternatively, the human and mouse albumin can be added after the overnight labeling step before the addition of LiCl.
The assay was typically run the next day after 18 h labeling. On the day of the assay, 5 μL of 300 mM LiCl was added to all wells and incubated at 37 degrees for 20 min. 0.75 μL of each compound was added and incubated with the cells for 60 min at 37 degrees. The media was then aspirated off and the assay terminated with the addition of 60 μL 10 mM formic acid. The cells were lysed for 60 min at room temperature. 15-30 μL of lysate was mixed with 70 μL/1 mg YSi SPA beads (Amersham) in clear bottom Isoplates. The plates were shaken for 2 h at room temperature. Beads were allowed to settle and the plates were counted in the Wallac Microbeta.

Sequence of Human GPR40 (O14842 whole entry): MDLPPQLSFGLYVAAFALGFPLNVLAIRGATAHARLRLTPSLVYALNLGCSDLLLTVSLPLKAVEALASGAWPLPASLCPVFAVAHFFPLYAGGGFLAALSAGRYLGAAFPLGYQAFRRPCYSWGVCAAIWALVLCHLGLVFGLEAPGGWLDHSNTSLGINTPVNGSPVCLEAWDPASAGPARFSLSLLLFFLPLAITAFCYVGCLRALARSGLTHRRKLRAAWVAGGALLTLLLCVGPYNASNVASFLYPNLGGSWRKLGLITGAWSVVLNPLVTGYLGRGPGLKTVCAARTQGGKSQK

SMILES | EC50 [nM]
COc1cccc(OC2CC(COc3cccc([C@H](C4CC4)[C@H](C)C(=O)O)c3)C2)c1 (single isomer, unassigned) [Example 65] | 22
COc1cccc(OC2CC(COc3cccc([C@H](C4CC4)[C@H](C)C(=O)O)c3)C2)c1 (single isomer, unassigned) [Example 66] | 119
COc1ccc(F)c(OC2CC(COc3cccc([C@H](C4CC4)[C@H](C)C(=O)O)c3)C2)c1 (single isomer, unassigned) [Example 80] | 12
COc1cccc(C2CC2COc2cccc([C@H](C3CC3)[C@H](C)C(=O)O)c2)c1 (single isomer, unassigned) [Example 83] | 94
COc1cc(C2CC(COc3cccc([C@H](C4CC4)[C@H](C)C(=O)O)c3)C2)ccn1 (single isomer, unassigned) [Example 88] | 930
COc1cc(C2CC(COc3cccc([C@H](C4CC4)[C@H](C)C(=O)O)c3)C2)ccn1 (single isomer, unassigned) [Example 89] | 61
C[C@H](C(=O)O)[C@H](c1cccc(OCC2CC(Oc3ccn[nH]3)C2)c1)C1CC1 (single isomer, unassigned) [Example 98] | 1480
C[C@H](C(=O)O)[C@H](c1cccc(OCC2CC(Oc3ccn[nH]3)C2)c1)C1CC1 (single isomer, unassigned) [Example 99] | 2670
COc1ccnc(OC2CC(COc3cccc([C@H](C4CC4)[C@H](C)C(=O)O)c3)C2)c1 (single isomer, unassigned) [Example 104] | 564
COc1ccnc(OC2CC(COc3cccc([C@H](C4CC4)[C@H](C)C(=O)O)c3)C2)c1 (single isomer, unassigned) [Example 105] | 56
C[C@H](C(=O)O)[C@H](c1cccc(OCC2CC(Oc3ccc4c(c3)COC4=O)C2)c1)C1CC1 (single isomer, unassigned) [Example 107] | 3450
C[C@H](C(=O)O)[C@H](c1cccc(OCC2CC(Oc3ccc4c(c3)COC4=O)C2)c1)C1CC1 (single isomer, unassigned) [Example 108] | 1970
COc1ccc(C)cc1OC1CC(COc2cccc([C@H](C3CC3)[C@H](C)C(=O)O)c2)C1 (single isomer, unassigned) [Example 116] | 77
COc1ccc(C)cc1OC1CC(COc2cccc([C@H](C3CC3)[C@H](C)C(=O)O)c2)C1 (single isomer, unassigned) [Example 117] | 50
Cc1ccc(F)c(OC2CC(COc3cccc([C@H](C4CC4)[C@H](C)C(=O)O)c3)C2)c1 (single isomer, unassigned) [Example 118] | 156
Cc1ccc(F)c(OC2CC(COc3cccc([C@H](C4CC4)[C@H](C)C(=O)O)c3)C2)c1 (single isomer, unassigned) [Example 119] | 98
C[C@H](C(=O)O)[C@H](c1cccc(OCC2CC(Oc3cccc(-c4ccccc4)c3)C2)c1)C1CC1 (single isomer, unassigned) [Example 120] | 975
C[C@H](C(=O)O)[C@H](c1cccc(OCC2CC(Oc3cccc(-c4ccccc4)c3)C2)c1)C1CC1 (single isomer, unassigned) [Example 121] | 561
C[C@H](C(=O)O)[C@H](c1cccc(OCC2CC(Oc3cccc(O)c3)C2)c1)C1CC1 (single isomer, unassigned) [Example 122] | 597
C[C@H](C(=O)O)[C@H](c1cccc(OCC2CC(Oc3cccc(O)c3)C2)c1)C1CC1 (single isomer, unassigned) [Example 123] | 324
CC(C)Oc1ccccc1OC1CC(COc2cccc([C@H](C3CC3)[C@H](C)C(=O)O)c2)C1 (single isomer, unassigned) [Example 126] | 147
CC(C)Oc1ccccc1OC1CC(COc2cccc([C@H](C3CC3)[C@H](C)C(=O)O)c2)C1 (single isomer, unassigned) [Example 127] | 182
COc1cccc(F)c1OC1CC(COc2cccc([C@H](C3CC3)[C@H](C)C(=O)O)c2)C1 (single isomer, unassigned) [Example 129] | 109
COc1cccc(F)c1OC1CC(COc2cccc([C@H](C3CC3)[C@H](C)C(=O)O)c2)C1 (single isomer, unassigned) [Example 130] | 139
C[C@H](C(=O)O)[C@H](c1cccc(OCC2CC(Oc3ccccc3Cl)C2)c1)C1CC1 (single isomer, unassigned) [Example 133] | 152
C[C@H](C(=O)O)[C@H](c1cccc(OCC2CC(Oc3ccccc3Cl)C2)c1)C1CC1 (single isomer, unassigned) [Example 134] | 85

SMILES | EC50 [nM]
CC(c1cc(C(F)(F)F)ccc1C(F)(F)F)N1CCC(COc2cccc([C@H](C3CC3)[C@H](C)C(=O)O)c2)CC1 (stereo partly drawn) [Example 35] | 20
CCC(c1cc(C(F)(F)F)ccc1C(F)(F)F)N1CC(COc2cccc([C@H](C3CC3)[C@H](C)C(=O)O)c2)C1 (stereo partly drawn) [Example 36] | 12
C[C@H](C(=O)O)[C@H](c1cccc(OCC2CCN(c3cccc(C(F)(F)F)n3)CC2)c1)C1CC1 [Example 37] | 177
C[C@H](C(=O)O)[C@H](c1cccc(OCC2CCN(c3ncccc3C(F)(F)F)CC2)c1)C1CC1 [Example 38] | 13
C[C@H](C(=O)O)[C@H](c1cccc(OCC2CCN(c3cc(C(F)(F)F)ccn3)CC2)c1)C1CC1 [Example 39] | 218
C[C@H](C(=O)O)[C@H](c1cccc(OCC2CCN([C@H](C)c3cc(C(F)(F)F)ccc3C(F)(F)F)C2)c1)C1CC1 (stereo partly drawn) [Example 40] | 25
C[C@H](C(=O)O)[C@H](c1cccc(OCC2CCN([C@@H](C)c3cc(C(F)(F)F)ccc3C(F)(F)F)C2)c1)C1CC1 (stereo partly drawn) [Example 41] | 23
COc1cccc(OC2CC(COc3cccc([C@H](C4CC4)[C@H](C)C(=O)O)c3)C2)c1 (stereo partly drawn) [Example 64, (2S,3R)-3-Cyclopropyl-3-(3-((3-(3-methoxyphenoxy)cyclobutyl)methoxy)phenyl)-2-methylpropanoic acid] | 60
C[C@H](C(=O)O)[C@H](c1cccc(OCC2CC2Cc2ccccc2)c1)C1CC1 (stereo partly drawn) [Example 67] | 408
C[C@H](C(=O)O)[C@H](c1cccc(OCC2CC2c2ccccc2)c1)C1CC1 (stereo partly drawn) [Example 68] | 304
COc1cccc(C2CC2COc2cccc([C@H](C3CC3)[C@H](C)C(=O)O)c2)c1 (stereo partly drawn) [Example 69] | 166
COc1cccc(C[C@H]2C[C@@H]2COc2cccc([C@H](C3CC3)[C@H](C)C(=O)O)c2)c1 [Example 70] | 146
COc1cccc(C[C@@H]2C[C@H]2COc2cccc([C@H](C3CC3)[C@H](C)C(=O)O)c2)c1 [Example 71] | 187
C[C@H](C(=O)O)[C@H](c1cccc(OCC2CC(c3ccccc3)C2)c1)C1CC1 (stereo partly drawn) [Example 72] | 201
COc1ccc(F)c(OC2CC(COc3cccc([C@H](C4CC4)[C@H](C)C(=O)O)c3)C2)c1 (stereo partly drawn) [Example 73] | 43
COc1ccc(F)c([C@H]2C[C@@H]2COc2cccc([C@H](C3CC3)[C@H](C)C(=O)O)c2)c1 [Example 74] | 56
COc1ccc(F)c([C@@H]2C[C@H]2COc2cccc([C@H](C3CC3)[C@H](C)C(=O)O)c2)c1 [Example 75] | 34
COc1cc([C@@H]2C[C@H]2COc2cccc([C@H](C3CC3)[C@H](C)C(=O)O)c2)c(F)cn1 [Example 76] | 138
COc1cccc(C2=CCC(COc3cccc([C@H](C4CC4)[C@H](C)C(=O)O)c3)C2)c1 (stereo partly drawn) [Example 78, (2 S,3R)-3-cyclopropyl-3-(3-((3-(3-methoxyphenyl)cyclopent-3-en-1 yl)methoxy)phenyl)-2-methylpropanoic acid] | 75
COc1cccc([C@H]2CC[C@@H](COc3cccc([C@H](C4CC4)[C@H](C)C(=O)O)c3)C2)c1 [Example 79, (2S,3R)-3-cyclopropyl-3-(3-(((1R,3 S)-3-(3-methoxyphenyl)cyclopentyl)methoxy)phenyl)-2-methylpropanoic acid] | 118
COc1ccc(F)c(OC2CC(COc3cccc([C@H](C4CC4)[C@H](C)C(=O)O)c3)C2)c1 (stereo partly drawn) [Example 81, (2S,3R)-3-cyclopropyl-3-(3-((3-(2-fluoro-5-methoxyphenoxy)cyclobutyl)methoxy)phenyl)-2-methylpropanoic acid] | 45
COc1cccc(C2CC2COc2cccc([C@H](C3CC3)[C@H](C)C(=O)O)c2)c1 (stereo partly drawn) [Example 82, (2S,3R)-3-cyclopropyl-3-(3-((2-(3-methoxyphenyl)cyclopropyl)methoxy)phenyl)-2-methylpropanoic acid] | 172
COc1cccc(C2CC(COc3cccc([C@H](C4CC4)[C@H](C)C(=O)O)c3)C2)c1 (stereo partly drawn) [Example 85] | 35
COc1cc(C2CC(COc3cccc([C@H](C4CC4)[C@H](C)C(=O)O)c3)C2)ccn1 (stereo partly drawn) [Example 86] | 102
C[C@H](C(=O)O)[C@H](c1cccc(OCC2CC(Oc3ccccc3)C2)c1)C1CC1 (stereo partly drawn) [Example 92, (2S,3R)-3-cyclopropyl-2-methyl-3-(3-((3-phenoxycyclobutyl)methoxy)phenyl)-propanoic acid] | 208
